Test results as given in ChEMBL document CHEMBL4842348 (J Med Chem, 2021).

How the values were obtained:
[1] = Dose normalized AUC in CD1 mouse at 1 mg/kg, iv and 2 mg/kg, po; type: ADME, organism-based; details: in vivo
[2] = Cmax in CD1 mouse at 2 mg/kg, po; type: ADME, organism-based; parameters: route oral, dose 2 mg/kg; details: in vivo
[3] = Terminal half life in Beagle dog at 0.5 mg/kg, iv; type: ADME, organism-based, Canis lupus familiaris; details: in vivo, read-out: beta t1/2 (converted)
[4] = MRT in Beagle dog at 0.5 mg/kg, iv; type: ADME, organism-based, Canis lupus familiaris; details: in vivo
[5] = Plasma clearance in rhesus monkey at 0.5 mg/kg, iv; type: ADME, organism-based, Macaca mulatta
[6] = Terminal half life in rhesus monkey at 0.5 mg/kg, iv; type: ADME, organism-based, Macaca mulatta; details: in vivo, read-out: beta t1/2 (converted)
[7] = Cmax in rhesus monkey at 2 mg/kg, po; type: ADME, organism-based, Macaca mulatta; parameters: route oral, dose 2 mg/kg; details: in vivo
[8] = AUC (0 to infinitive) in rhesus monkey at 2 mg/kg, po; type: ADME, organism-based, Macaca mulatta; parameters: route oral, time infinity, dose 2 mg/kg; details: in vivo
[9] = Half life in lean wild type mouse plasma at 10 mg/kg, po qd treated for 40 days; type: ADME, organism-based; details: time 40 day
[10] = Half life in lean NFR-transgenic mouse plasma at 10 mg/kg, po qd treated for 40 days; type: ADME, organism-based; details: time 40 day
[11] = Half life in lean NFR-transgenic mouse liver at 10 mg/kg, po qd treated for 40 days; type: ADME, organism-based; details: time 40 day
[12] = Terminal half life in DIO NFR-transgenic mouse liver at 10 mg/kg, po once daily for 14 days; type: ADME, organism-based; details: time 14 day, read-out: beta t1/2 (converted)
[13] = Normalized AUC (0 to 72 hrs) in fasted dog at 1 mg/kg, po in 0.5% methocel; type: ADME, organism-based, Canis lupus familiaris; details: in vivo
[14] = Normalized AUC (0 to 72 hrs) in high fat diet fed dog at 1 mg/kg, po in 0.5% methocel; type: ADME, organism-based, Canis lupus familiaris; details: in vivo
[15] = Cmax in fasted dog at 1 mg/kg, po in 0.5% methocel; type: ADME, organism-based, Canis lupus familiaris; parameters: route oral, dose 1 mg/kg; details: in vivo
[16] = Cmax in high fat diet fed dog at 1 mg/kg, po in 0.5% methocel; type: ADME, organism-based, Canis lupus familiaris; parameters: route oral, dose 1 mg/kg; details: in vivo
[17] = Oral bioavailability in high fat diet fed dog at 1 mg/kg in Imwitor/Tween; type: ADME, organism-based, Canis lupus familiaris; details: in vivo
[18] = Drug recovery in bile duct cannulated single po dosed WH rat assessed as recovered parent compound in bile relative to total recovery; type: ADME, organism-based; details: in vivo
[19] = Drug recovery in bile duct cannulated single po dosed rhesus monkey assessed as recovered parent compound in bile relative to total recovery; type: ADME, organism-based, Macaca mulatta; details: in vivo
[20] = Drug recovery in bile duct cannulated single po dosed rhesus monkey assessed as recovered taurine conjugate in bile relative to total recovery; type: ADME, organism-based, Macaca mulatta; details: in vivo
[21] = Drug recovery in bile duct cannulated single po dosed rhesus monkey assessed as recovered parent compound in urine relative to total recovery; type: ADME, organism-based, Macaca mulatta; details: in vivo
[22] = Drug recovery in bile duct cannulated single po dosed rhesus monkey assessed as recovered parent compound in plasma measured at 24 hrs relative to total recovery; type: ADME, organism-based, Macaca mulatta; details: in vivo

- AUC/dose [1]: 9.2 µM·h
- Cmax [2]: 430 nM
- half-life [3]: 15 h
- MRT [4]: 18 h
- clearance [5]: 0.39 mL/min/kg
- half-life [6]: 50 h
- Cmax [7]: 220 nM
- AUC(0-inf) [8]: 11 µM·h
- half-life [9]: 0.8 h
- half-life [10]: 288 h
- half-life [11]: 69.6 h
- half-life at […] [12]: 5.5 h
- AUC/dose [13]: 6.5 µM·kg·h/mg
- AUC/dose [14]: 4.2 µM·kg·h/mg
- Cmax [15]: 500 nM
- Cmax [16]: 300 nM
- bioavailability [17]: 48%
- Drug recovery [18]: < 2%
- Drug recovery [19]: < 1%
- Drug recovery [20]: 3%
- Drug recovery [21]: > 99%
- Drug recovery [22]: > 99%
Structure (SMILES): COc1ncc(-c2ccc(C(=O)O)cc2C)cc1-c1ccc(C(F)(F)F)cc1[C@@H]1CC[C@H]2[C@@H](c3cc(C(F)(F)F)cc(C(F)(F)F)c3)OC(=O)N12
